In PMC5523311, “Synergistic Uric Acid-Lowering Effects of the Combination of Chrysanthemum indicum Linne Flower and Cinnamomum cassia (L.) J. Persl Bark Extracts” (Evidence-based Complementary and Alternative Medicine : eCAM, 2017):
≈ marks a conversion by molar mass, not a printed value.

Experiments:
[1] = biological target: T1, xanthine oxidase from bovine milk (Bos taurus, UniProt P80457); assay: In vitro XOD inhibition assay (uric acid formation at 295 nm); format: biochemical; settings: for IC50 XOD activity / IC50: mean of three experiments
T1 construct: xanthine oxidase from bovine milk (0.09 units/mg solid); purchased Sigma-Aldrich (St. Louis, MO, USA); host or cells: bovine milk

[2] = tested on: PO-induced hyperuricemic mice; design: method as in Wang et al. [23] and Meng et al. [32]; settings: ref Wang et al. [23] and Meng et al. [32]; cited from earlier work
[3] = tested on: PO-induced hyperuricemic rats; assay: Serum uric acid levels in PO-induced hyperuricemic rats; format: in vivo, rat; settings: 10 mg/kg oral
Method: (§1) For hyperuricemia induction, the uricase inhibitor potassium oxonate (PO) was administered as previously described, with slight modifications. For the experiment regarding the effects of CF, CB, and various CC mixtures, the rats were divided into the following 10 groups (n = 8/group) based on body weight: (1) a normal control group (NC), (2) a hyperuricemia control group (PO), (3) a PO + CF group, (4) a PO + CB group, (5) a PO + CC11 group, (6) a PO + CC12 group, (7) a PO + CC14 group, (8) a PO + CC21 group, (9) a PO + CC41 group, and (10) a PO + AP group. […]
(§2) Urine samples were collected during 2 h after the final administration experiment and centrifuged (3000g, 10 min, 4°C) to remove particulate contaminants, and the supernatants were stored at −80°C until analysis. […] Serum and urine uric acid (SUA and UUA, resp.) levels were determined by an enzymatic-colorimetric method using commercial assay kits (Biovision, USA) according to manufacturer's protocols. Serum and urine creatinine levels were analyzed by an autoanalyzer (Hitachi-7020, Hitachi Medical, Japan). Fractional excretion of uric acid (FEUA) was calculated by the formula FEUA (%) = (urine uric acid levels [mg/dl] × Serum Creatinine levels [mg/dl])/(serum uric acid levels [mg/dl] × urine creatinine levels [mg/dl]) × 100.

[4] = tested on: PO-induced hyperuricemic rats; assay: Urine uric acid, FEUA and creatinine in PO-induced hyperuricemic rats; format: in vivo, rat; settings: 10 mg/kg oral
Method: as §1, §2

normal rats = assay: Serum uric acid levels in normal rats; format: in vivo, rat; settings: 10 mg/kg oral, Figure 1(b)
Method: The rats were randomized into the following 9 groups (n = 8/group) based on body weight: (1) a normal control group (NC), (2) a CF group, (3) a CB group, (4) a CC11 group, (5) a CC12 group, (6) a CC14 group, (7) a CC21 group, (8) a CC41 group, and (9) an AP group. The rats of NC group were treated with vehicle (0.5% CMC solution). CF, CB, and various CC mixtures in 0.5% CMC solution were given to the rats via oral gavage at a dose of 200 mg/kg. Allopurinol in 0.5% CMC solution was administered at a dose of 10 mg/kg.
as §2, with “analysis. Blood samples were collected via cardiac puncture under anesthesia 2 h after urine collection following PO injection.” for “analysis.”

[5] = read-out: % inhibition of XOD activity

T1 sequence (P80457 whole entry): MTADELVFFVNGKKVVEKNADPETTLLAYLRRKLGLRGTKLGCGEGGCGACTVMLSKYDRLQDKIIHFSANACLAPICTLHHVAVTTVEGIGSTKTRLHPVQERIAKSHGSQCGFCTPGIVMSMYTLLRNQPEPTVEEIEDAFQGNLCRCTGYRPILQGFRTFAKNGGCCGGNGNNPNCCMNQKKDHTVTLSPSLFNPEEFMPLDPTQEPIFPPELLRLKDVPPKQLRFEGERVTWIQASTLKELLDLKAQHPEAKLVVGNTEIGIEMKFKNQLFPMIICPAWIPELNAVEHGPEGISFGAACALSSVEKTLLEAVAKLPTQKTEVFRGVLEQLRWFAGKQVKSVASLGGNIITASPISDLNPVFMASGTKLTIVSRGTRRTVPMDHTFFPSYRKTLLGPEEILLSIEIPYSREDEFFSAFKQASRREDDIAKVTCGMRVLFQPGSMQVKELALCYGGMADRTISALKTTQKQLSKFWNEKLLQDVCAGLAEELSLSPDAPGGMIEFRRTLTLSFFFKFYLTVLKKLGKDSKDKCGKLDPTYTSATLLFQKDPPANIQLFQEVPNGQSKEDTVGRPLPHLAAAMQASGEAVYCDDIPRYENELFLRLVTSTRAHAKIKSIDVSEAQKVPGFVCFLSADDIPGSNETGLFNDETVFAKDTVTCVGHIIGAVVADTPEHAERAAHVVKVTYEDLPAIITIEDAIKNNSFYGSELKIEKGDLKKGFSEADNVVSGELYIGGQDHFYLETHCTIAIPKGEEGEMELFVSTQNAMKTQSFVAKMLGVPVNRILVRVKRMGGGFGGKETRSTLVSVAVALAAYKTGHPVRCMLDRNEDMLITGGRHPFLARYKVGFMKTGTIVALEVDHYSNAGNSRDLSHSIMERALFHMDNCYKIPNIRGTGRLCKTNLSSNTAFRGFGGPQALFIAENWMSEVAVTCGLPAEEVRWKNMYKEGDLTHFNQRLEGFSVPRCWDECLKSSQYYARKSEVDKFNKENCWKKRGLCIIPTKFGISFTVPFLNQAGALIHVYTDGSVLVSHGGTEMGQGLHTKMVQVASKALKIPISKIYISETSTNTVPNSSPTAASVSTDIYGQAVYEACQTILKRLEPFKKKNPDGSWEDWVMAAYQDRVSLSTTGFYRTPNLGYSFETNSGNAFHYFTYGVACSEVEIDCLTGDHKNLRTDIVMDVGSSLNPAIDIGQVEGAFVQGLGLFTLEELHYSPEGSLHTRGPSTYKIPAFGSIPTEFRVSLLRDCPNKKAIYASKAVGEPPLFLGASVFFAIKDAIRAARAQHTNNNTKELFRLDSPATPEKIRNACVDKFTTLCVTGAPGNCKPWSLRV

Row | SMILES | % inhibition of XOD activity ([1]; 62.5 μg/ml) | % inhibition of XOD activity ([1]; 125 μg/ml) | % inhibition of XOD activity ([1]; 250 μg/ml) | IC50 XOD activity [1] | inhibition at 62.5 µg/mL ([1]; 62.5 μg/ml) | inhibition at 125 µg/mL ([1]; 125 μg/ml) | inhibition at 250 µg/mL ([1]; 250 μg/ml) | IC50 [1] | other results
1 | Oc1ncnc2[nH]ncc12 [Allopurinol, allopurinol] |  |  |  |  |  |  |  |  | Reduction of serum uric acid levels compared with the PO group ([3]; PO-induced hyperuricemic rats, Figure 1(a)): 75%; Reduction of serum uric acid levels ([3]; dose-dependence experiment, Figure 2(a)): 66%; Effect on urine uric acid levels ([4]; Figure 2(b)): did not affect; Effect on FEUA ([4]; Figure 2(c), p < 0.05): increased the FEUA; Decrease of serum uric acid levels compared with the NC group (normal rats): 70%; inhibition at 6.25 µg/mL [1, 5]: 51.7 ± 0.7%; inhibition at 12.5 µg/mL [1, 5]: 71.7 ± 0.1%; inhibition at 25 µg/mL [1, 5]: 80.3 ± 0.3%
2 | O=C(O)/C=C/c1ccccc1 [trans-Cinnamic acid, trans-cinnamic acid] | 54.3 ± 0.7% | 96.7 ± 1.9% | 114.9 ± 0.4% | 58.8 µg/mL (≈ 397 µM) |  |  |  |  | 
3 | O=C/C=C/c1ccccc1 [Cinnamaldehyde, cinnamaldehyde] |  |  |  |  | 101 ± 3.2% | 126 ± 5.6% | 119 ± 35.1% | 331 µM | Effect on serum uric acid levels by inhibiting XOD activity [2]: significantly decreased

More lines, main results first:

Row | % inhibition of XOD activity ([1]; 62.5 μg/ml) | % inhibition of XOD activity ([1]; 125 μg/ml) | % inhibition of XOD activity ([1]; 250 μg/ml) | IC50 XOD activity [1] | inhibition at 62.5 µg/mL ([1]; 62.5 μg/ml) | inhibition at 125 µg/mL ([1]; 125 μg/ml) | inhibition at 250 µg/mL ([1]; 250 μg/ml) | IC50 [1] | SMILES | other results
4 | 104.7 ± 0.2% | 101.2 ± 0.2% | 100.0 ± 0.4% | 25.7 µg/mL (≈ 158 µM) |  |  |  |  | COc1ccccc1C=CC=O [o-Methoxycinnamaldehyde, o-methoxycinnamaldehyde] | 
5 |  |  |  |  | 22.8 ± 0.1% | 75.1 ± 1% | 103.9 ± 0.7% | 651 µM | O=c1ccc2ccccc2o1 [Coumarin, coumarin] | 
6 |  |  |  |  | 24 ± 1.7% | 63.6 ± 1.5% | 107.3 ± 0.6% | 293 µM | O=C(/C=C/c1ccc(O)c(O)c1)O[C@@H]1C[C@](O)(C(=O)O)C[C@@H](O)[C@H]1O [Chlorogenic acid] | Effect on serum uric acid levels by inhibiting XOD activity [2]: significantly decreased
7 | 21.0 ± 1.5% | 104.6 ± 2.6% | 85.0 ± 1.2% | 79.7 µg/mL (≈ 154 µM) |  |  |  |  | O=C(/C=C/c1ccc(O)c(O)c1)O[C@@H]1[C@H](O)C[C@@](O)(C(=O)O)C[C@H]1OC(=O)/C=C/c1ccc(O)c(O)c1 (stereo in doubt) [3,4-Dicaffeoylquinic acid, 3,4-dicaffeoylquinic acid] | 
